Reference: article PMC7932537, “Quantitative profiling of protease specificity” (PLoS Computational Biology, 2021)

Key:
MMP-9 = test: Substrate phage display with NGS: relative probability (RP) of P3-P1' tetramer clusters; type: biochemical, human; details: for MMP9 relative probability (RP): MMP9 tetramers from unique substrates, unrounded values
MMP-2 = test: as above; type: biochemical, human; details: for relative probability (RP) of matching tetramer: P3-P1' tetramer matching the MS detected MMP2 cleavage sequence, RP_above_4.5; for corresponding MMP2 relative probability (RP): MMP9 tetramers from unique substrates, RP of same tetramer for MMP2
[1] = RP of the P3-P1' tetramer in MMP-9 substrate phage display/NGS, tetramer annotation of MMP-9 cleavage sites (octamers P4-P4') collected in MEROPS database
[2] = rank of the P3-P1' tetramer by RP in MMP-9 substrate phage display/NGS, tetramer annotation of MMP-9 cleavage sites (octamers P4-P4') collected in MEROPS database
[3] = MMP2, RP of matching P3-P1' tetramer, common set of MMP2-9 selectome, RP above KL threshold
[4] = MMP9, RP of matching P3-P1' tetramer, common set of MMP2-9 selectome
[5] = RP of matching tetramer, common MMP2-9 selectome
[6] = MMP9, RP of the P3-P1' tetramer matching the MS detected cleavage, RP above 4.7, substrate phage display with NGS
[7] = RP of matching tetramer, common MMP2-9 selectome, RP above KL threshold
[8] = RP of the P3-P1' tetramer, MMP2 substrate phage display/NGS, tetramers of physiologic MEROPS substrates common to MMP2 and MMP9
[9] = RP of the P3-P1' tetramer, MMP9 substrate phage display/NGS, tetramers of physiologic MEROPS substrates common to MMP2 and MMP9
[10] = RP of the P3-P1' tetramer cluster contained in the hexamer, 200 nM MMP-2, 2 h, 37°C, two rounds of selection
[11] = MMP9, RP of the P3-P1' tetramer contained in the hexamer substrate (substrate phage display, NGS)
[12] = tetramer annotation of MMP-9 cleavage sites in physiologic substrates from MEROPS
[13] = RP according to MMP9, P3-P1' tetramer of unique physiologic MMP9 substrates from MEROPS
[14] = tetramer projected onto MMP-9 cleavage sites determined by Prudova et al. (2010)

## AAAA
MMP-9; [1]
  relative probability (RP): 0.34
MMP-9; [2]
  Relative probability (RP) rank: 31285

## AAAI
MMP-2; [3]
  relative probability (RP) (acc.to MMP2): 25.49
MMP-2
  relative probability (RP) of matching tetramer: 25.49
MMP-9; [4]
  relative probability (RP) (acc.to MMP9): 15.73

## AAAK
MMP-9; [1]
  relative probability (RP): 0
MMP-9; [2]
  Relative probability (RP) rank: 91823

## AAAL
MMP-2; [3]
  relative probability (RP) (acc.to MMP2): 31.4
MMP-2
  relative probability (RP) of matching tetramer: 31.4
MMP-2; [5]
  relative probability (RP) (acc.to MMP2): 31.4
MMP-2; tetramer annotation of MMP-2 cleavage sites in all substrates from MEROPS
  relative probability (RP): 31.4
MMP-9; [4]
  relative probability (RP) (acc.to MMP9): 32.12
MMP-9; [6]
  relative probability (RP): 32.12
MMP-9; [7]
  relative probability (RP) (acc.to MMP9): 32.12

## AAAM
MMP-2; [3]
  relative probability (RP) (acc.to MMP2): 23.42
MMP-2
  relative probability (RP) of matching tetramer: 23.42
MMP-9; [4]
  relative probability (RP) (acc.to MMP9): 23.49

## AAAY
MMP-9; [1]
  relative probability (RP): 22.04
MMP-9; [2]
  Relative probability (RP) rank: 2070

## AAGV
MMP-2; [8]
  relative probability (RP) (acc.to MMP2): 0.76
MMP-9; [9]
  relative probability (RP) (acc.to MMP9): 0.05

## AHNLSS
MMP-2; [10]
  relative probability (RP): 23.7113
MMP-9; [11]
  relative probability (RP): 29.6602

## AIHI
MMP-2; [8]
  relative probability (RP) (acc.to MMP2): 4.71
MMP-9; [9]
  relative probability (RP) (acc.to MMP9): 5.64

## AINI
MMP-2; [3]
  relative probability (RP) (acc.to MMP2): 8.5
MMP-2
  relative probability (RP) of matching tetramer: 8.5
MMP-2; [5]
  relative probability (RP) (acc.to MMP2): 8.5
MMP-9; [4]
  relative probability (RP) (acc.to MMP9): 14.08
MMP-9; [6]
  relative probability (RP): 14.08
MMP-9; [7]
  relative probability (RP) (acc.to MMP9): 14.08

## AKAL
MMP-2; [3]
  relative probability (RP) (acc.to MMP2): 22.96
MMP-2
  relative probability (RP) of matching tetramer: 22.96
MMP-2; [5]
  relative probability (RP) (acc.to MMP2): 22.96
MMP-9; [4]
  relative probability (RP) (acc.to MMP9): 37.29
MMP-9; [6]
  relative probability (RP): 37.29
MMP-9; [7]
  relative probability (RP) (acc.to MMP9): 37.29

## AKAQ
MMP-2
  corresponding MMP2 relative probability (RP): 5.884
MMP-9
  MMP9 relative probability (RP): 0.8414

## AKNL
MMP-2; [3]
  relative probability (RP) (acc.to MMP2): 16.7
MMP-2
  relative probability (RP) of matching tetramer: 16.7
MMP-2; [5]
  relative probability (RP) (acc.to MMP2): 16.7
MMP-9; [4]
  relative probability (RP) (acc.to MMP9): 32.82
MMP-9; [6]
  relative probability (RP): 32.82
MMP-9; [7]
  relative probability (RP) (acc.to MMP9): 32.82

## AKRF
MMP-9; [12]
  relative probability (RP): 0.43

## ALYL
MMP-2
  corresponding MMP2 relative probability (RP): 5.662
MMP-9
  MMP9 relative probability (RP): 1.807

## AMFL
MMP-2
  corresponding MMP2 relative probability (RP): 15.1166
MMP-9
  MMP9 relative probability (RP): 1.089

## AMPM
MMP-2; [3]
  relative probability (RP) (acc.to MMP2): 8.51
MMP-2
  relative probability (RP) of matching tetramer: 8.51
MMP-2; [5]
  relative probability (RP) (acc.to MMP2): 8.51
MMP-9; [4]
  relative probability (RP) (acc.to MMP9): 26.95
MMP-9; [6]
  relative probability (RP): 26.95
MMP-9; [7]
  relative probability (RP) (acc.to MMP9): 26.95

## ANPV
MMP-2; [8]
  relative probability (RP) (acc.to MMP2): 0.04
MMP-9; [9]
  relative probability (RP) (acc.to MMP9): 0.33

## APALWI
MMP-2; [10]
  relative probability (RP): 24.3606
MMP-9; [11]
  relative probability (RP): 27.3829

## APGF
MMP-2; [8]
  relative probability (RP) (acc.to MMP2): 0.64
MMP-9; [9]
  relative probability (RP) (acc.to MMP9): 0.56

## FFPF
MMP-9; [12]
  relative probability (RP): 0.33

## GVMQ
MMP-9; [13]
  Relative probability (RP) rank: 91467
  relative probability (RP): 0

## IIGL
MMP-9; [13]
  Relative probability (RP) rank: 15777
  relative probability (RP): 0.98

## IRYV
MMP-9; [6]
  relative probability (RP): 10.4

## ITPL [P3-P1' tetramer cluster]
MMP-9; [14]
  relative probability (RP): 0.92

## IYYI
MMP-9; [6]
  relative probability (RP): 14.54

## PAPL [P3-P1' tetramer cluster]
MMP-9; [14]
  relative probability (RP): 46.24

## PDHL
MMP-9; [6]
  relative probability (RP): 13.06

## PFAS
MMP-9; [6]
  relative probability (RP): 24.05

## PFAV [P3-P1' tetramer cluster]
MMP-9; [14]
  relative probability (RP): 43.58

## PFKI
MMP-9; [6]
  relative probability (RP): 34.84

## PFPL [P3-P1' tetramer cluster]
MMP-9; [14]
  relative probability (RP): 49.54

## PFSV [P3-P1' tetramer cluster]
MMP-9; [14]
  relative probability (RP): 31.92

## PKAS [P3-P1' tetramer cluster]
MMP-9; [14]
  relative probability (RP): 25.84

## PKGE [P3-P1' tetramer cluster]
MMP-9; [14]
  relative probability (RP): 0

## PMAA
MMP-9; [6]
  relative probability (RP): 16.94
